Earlier results on one compound are cited in publication PMC11979685, “Synthesis of Derivatives of the Antibiotic Albicidin: The N‐Terminal Fragment as Key to Control Potency and Resistance Mediated by the Binding Protein AlbA” (Chemistry (Weinheim an Der Bergstrasse, Germany), 2025).

In brackets after ≈: the same amount, converted by molar mass.

What all share (set-up): method as in PMID 36741192
The test system of data set [1] is Mycobacterium phlei DSM 750. To be noted: already published elsewhere; cited from earlier work.
In a further data set the test system is E. coli. As to conditions: E. coli in presence of 50 % human serum; already published elsewhere; cited from earlier work.
Data set [2] has as its system Salmonella typhimurium TA100. To be noted: already published elsewhere; cited from earlier work.
The target in another data set is E. coli DNA gyrase (Escherichia coli, UniProt P0AES4). To be noted: E. coli gyrase DNA cleavage; already published elsewhere; read-out: CC50 (concentration at half-maximum cleavage); cited from earlier work.
The subject of a further data set is Bacillus subtilis DSM 10. To be noted: already published elsewhere; cited from earlier work.
The next data set relates to E. coli DSM1116. As to conditions: already published elsewhere; cited from earlier work.
Data set [3] has as its system Micrococcus luteus DSM 1790. To be noted: already published elsewhere; cited from earlier work.
The test system of the next data set is E. coli BW25113. As to conditions: already published elsewhere; cited from earlier work.

Sequence of E. coli DNA gyrase (P0AES4 whole entry): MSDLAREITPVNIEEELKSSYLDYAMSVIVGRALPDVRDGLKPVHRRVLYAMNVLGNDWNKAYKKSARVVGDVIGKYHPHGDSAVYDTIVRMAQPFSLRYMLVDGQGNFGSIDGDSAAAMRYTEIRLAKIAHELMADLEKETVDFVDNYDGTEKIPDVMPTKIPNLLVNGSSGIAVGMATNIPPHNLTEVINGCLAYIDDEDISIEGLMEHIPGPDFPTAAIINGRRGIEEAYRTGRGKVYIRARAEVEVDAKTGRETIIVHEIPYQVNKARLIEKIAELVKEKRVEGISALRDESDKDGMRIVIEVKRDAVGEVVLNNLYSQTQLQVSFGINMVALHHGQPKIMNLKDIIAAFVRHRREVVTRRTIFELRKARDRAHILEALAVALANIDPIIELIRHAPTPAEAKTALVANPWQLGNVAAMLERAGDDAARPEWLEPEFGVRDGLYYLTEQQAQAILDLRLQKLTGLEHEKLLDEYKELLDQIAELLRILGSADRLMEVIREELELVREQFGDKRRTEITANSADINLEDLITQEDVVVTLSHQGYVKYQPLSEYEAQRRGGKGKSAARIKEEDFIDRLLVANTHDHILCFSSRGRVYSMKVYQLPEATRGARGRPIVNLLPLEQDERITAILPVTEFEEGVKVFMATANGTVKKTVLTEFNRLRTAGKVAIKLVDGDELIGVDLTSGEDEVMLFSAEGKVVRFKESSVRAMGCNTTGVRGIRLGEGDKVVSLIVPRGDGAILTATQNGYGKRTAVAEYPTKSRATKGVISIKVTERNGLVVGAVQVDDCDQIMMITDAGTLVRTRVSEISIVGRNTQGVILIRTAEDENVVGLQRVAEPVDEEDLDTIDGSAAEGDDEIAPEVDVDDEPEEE

`COc1c(NC(=O)c2ccc(NC(=O)c3ccc(NC(=O)[C@H](Cc4c[nH]nn4)NC(=O)c4ccc(NC(=O)c5ccc6nc(C)ccc6c5)cc4)cn3)c(OC)c2O)ccc(C(=O)O)c1O` [compound 16]: the “MIC M. phlei” value in data set [1] is 0.5 µg/mL (≈ 0.559 µM). Moreover, the “MICEc 50%HS” value with E. coli was 0.5 µg/mL. For the same compound, the “MIC S. typh.” value in data set [2] is not above 0.016 µg/mL. Also, at E. coli DNA gyrase, the CC50 is 25 nM. Besides, the “MIC B. sub.” value in the data set with Bacillus subtilis DSM 10 is 0.063 µg/mL (≈ 0.0704 µM). Further, the “MIC E. coli DSM1116” value in the data set on E. coli DSM1116 was 0.016 µg/mL (≈ 0.0179 µM). For the same compound, in data set [3], the “MIC M. luteus” value was 0.063 µg/mL (≈ 0.0704 µM). Further, in the data set on E. coli BW25113, the “MIC E. coli BW25113” value was 0.016 µg/mL (≈ 0.0179 µM).
